Tests used:
[1] = target: T1, ATP-dependent translocase ABCB1 (Homo sapiens, UniProt P08183)
Description: TP_TRANSPORTER: inhibition of LDS-751 efflux in NIH-3T3-G185 cells

[2] = target: T1, ATP-dependent translocase ABCB1; remark: listed apart in the source
Description: TP_TRANSPORTER: inhibition of Daunorubicin efflux in NIH-3T3-G185 cells

[3] = target: T1, ATP-dependent translocase ABCB1; remark: listed apart in the source
Description: TP_TRANSPORTER: inhibition of Rhodamine 123 efflux in NIH-3T3-G185 cells

[4] = target: T1, ATP-dependent translocase ABCB1; remark: listed apart in the source
Description: TP_TRANSPORTER: inhibition of Tetramethylrosamine efflux in NIH-3T3-G185 cells

[5] = target: T1, ATP-dependent translocase ABCB1; remark: listed apart in the source
Description: TP_TRANSPORTER: inhibition of Calcein-AM efflux in NIH-3T3-G185 cells

[6] = target: T1, ATP-dependent translocase ABCB1; remark: listed apart in the source
[7] = target: T1, ATP-dependent translocase ABCB1; remark: listed apart in the source
Description: TP_TRANSPORTER: inhibition of Fluo-3-AM efflux in NIH-3T3-G185 cells

[8] = target: T1, ATP-dependent translocase ABCB1; assay: TP_TRANSPORTER: inhibition of Daunorubicin, LDS-751 and Rhodamine 123 efflux in NIH-3T3-G185 cells; type: functional, cell-based; conditions: mouse

T1 sequence (P08183 whole entry): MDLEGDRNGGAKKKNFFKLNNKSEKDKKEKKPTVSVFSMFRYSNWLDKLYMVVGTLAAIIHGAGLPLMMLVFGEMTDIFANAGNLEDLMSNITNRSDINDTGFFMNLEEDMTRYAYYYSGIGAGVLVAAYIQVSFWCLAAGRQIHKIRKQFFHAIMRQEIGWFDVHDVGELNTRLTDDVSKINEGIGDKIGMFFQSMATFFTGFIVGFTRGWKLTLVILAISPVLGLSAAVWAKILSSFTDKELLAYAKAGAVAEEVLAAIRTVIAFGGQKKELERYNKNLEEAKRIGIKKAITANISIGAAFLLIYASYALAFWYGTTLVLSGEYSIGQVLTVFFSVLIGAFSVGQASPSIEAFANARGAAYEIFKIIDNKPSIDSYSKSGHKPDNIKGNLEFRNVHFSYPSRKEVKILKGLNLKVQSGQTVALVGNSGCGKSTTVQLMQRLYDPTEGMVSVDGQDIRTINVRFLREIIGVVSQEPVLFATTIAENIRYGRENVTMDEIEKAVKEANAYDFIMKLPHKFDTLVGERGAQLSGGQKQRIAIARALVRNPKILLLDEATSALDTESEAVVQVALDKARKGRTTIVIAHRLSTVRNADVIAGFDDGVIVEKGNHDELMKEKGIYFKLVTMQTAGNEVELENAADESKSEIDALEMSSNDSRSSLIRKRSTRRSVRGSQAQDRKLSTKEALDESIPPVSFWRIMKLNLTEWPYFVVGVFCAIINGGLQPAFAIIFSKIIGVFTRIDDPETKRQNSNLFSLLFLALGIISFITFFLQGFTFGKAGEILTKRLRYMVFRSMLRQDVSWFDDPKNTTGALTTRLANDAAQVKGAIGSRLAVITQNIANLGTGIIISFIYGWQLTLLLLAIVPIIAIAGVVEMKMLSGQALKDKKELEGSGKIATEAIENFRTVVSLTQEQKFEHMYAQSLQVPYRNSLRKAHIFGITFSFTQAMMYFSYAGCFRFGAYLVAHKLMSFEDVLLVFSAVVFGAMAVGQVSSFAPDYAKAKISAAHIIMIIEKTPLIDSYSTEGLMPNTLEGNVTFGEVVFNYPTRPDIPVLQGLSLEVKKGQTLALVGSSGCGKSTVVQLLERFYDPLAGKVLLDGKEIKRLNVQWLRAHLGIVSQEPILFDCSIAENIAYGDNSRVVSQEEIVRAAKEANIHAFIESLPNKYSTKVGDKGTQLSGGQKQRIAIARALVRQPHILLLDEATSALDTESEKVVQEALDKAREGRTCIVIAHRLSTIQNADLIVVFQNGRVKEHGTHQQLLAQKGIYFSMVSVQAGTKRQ

Row | IC50 [1] [µM] | IC50 [2] [µM] | IC50 [3] [µM] | IC50 [4] [µM] | IC50 [5] [µM] | IC50 [6] [µM] | IC50 [7] [µM] | Activity [8] | Compound
1 | 6 | 4.6 | 6.6 |  |  |  |  |  | COc1ccccc1OCCNCC(O)COc1cccc2[nH]c3ccccc3c12 (stereo unspecified) [CARVEDILOL]
2 | 7.2 | 3.8 | 15.1 | 23.8 | 56.1 | 50.2 | 86.7 |  | CC[C@H]1OC(=O)[C@H](C)[C@@H](O[C@H]2C[C@@](C)(OC)[C@@H](O)[C@H](C)O2)[C@H](C)[C@@H](O[C@@H]2O[C@H](C)C[C@H](N(C)C)[C@H]2O)[C@](C)(OC)C[C@@H](C)C(=O)[C@H](C)[C@@H](O)[C@]1(C)O [CLARITHROMYCIN]
3 | 1.1 | 0.6 | 1 |  |  |  |  |  | CC(C)/N=c1\cc2n(-c3ccc(Cl)cc3)c3ccccc3nc-2cc1Nc1ccc(Cl)cc1 [CLOFAZIMINE]
4 | 188 | 80.2 |  |  |  |  |  |  | C=C[C@@]1(C)CC(=O)[C@]2(O)[C@@]3(C)[C@@H](O)CCC(C)(C)[C@@H]3[C@H](O)[C@H](OC(C)=O)[C@@]2(C)O1 [COLFORSIN]
5 |  |  |  |  |  |  |  | is not an inhibitor [-] | COc1ccc2c(c1)c(CC(=O)O)c(C)n2C(=O)c1ccc(Cl)cc1 [INDOMETHACIN]
6 | 4.9 | 3.6 | 8.6 |  |  |  |  |  | COc1ccc(CCNCCCC(C#N)(c2cc(OC)c(OC)c(OC)c2)C(C)C)cc1OC (stereo unspecified) [N-Norgallopamil]
7 | 53.9 | 54 | 70.2 |  |  |  |  |  | CC(=O)O[C@H]1C(=O)[C@@]2(C)[C@H]([C@H](OC(=O)c3ccccc3)[C@]3(O)C[C@H](OC(=O)[C@H](O)[C@@H](NC(=O)c4ccccc4)c4ccccc4)C(C)=C1C3(C)C)[C@]1(OC(C)=O)CO[C@@H]1C[C@@H]2O [PACLITAXEL]
8 | 2.1 | 0.5 | 3.9 | 5.3 | 2.6 | 6.1 | 2.1 |  | COC(=O)[C@H]1[C@H]2C[C@@H]3c4[nH]c5cc(OC)ccc5c4CCN3C[C@H]2C[C@@H](OC(=O)c2cc(OC)c(OC)c(OC)c2)[C@@H]1OC [RESERPINE]

Row | Compound | IC50 [1] [µM] | IC50 [2] [µM] | IC50 [3] [µM] | IC50 [4] [µM] | IC50 [5] [µM] | IC50 [6] [µM] | IC50 [7] [µM] | Activity [8]
9 | CC[C@H]1CN2CCc3cc(OC)c(OC)cc3[C@@H]2C[C@@H]1C[C@H]1NCCc2cc(OC)c(OC)cc21 [EMETINE] | 2.4 | 9.2 | 9.6 | 207 | 35.1 | 116 | 130 | 
10 | OCCN1CCN(CCCN2c3ccccc3Sc3ccc(C(F)(F)F)cc32)CC1 [FLUPHENAZINE] | 5.7 | 6.5 | 10.4 |  |  |  |  | 
11 | c1ccc([P+](c2ccccc2)(c2ccccc2)c2ccccc2)cc1 [TETRAPHENYLPHOSPHONIUM] | 427 | 490 |  |  |  |  |  | 

Source: ChEMBL document CHEMBL2074145, “Active transport of fluorescent P-glycoprotein substrates: evaluation as markers and interaction with inhibitors” (Biochem Biophys Res Commun, 2001)
